Ends that are not written are not given here.
Legend:
Mice [1] = test: Appetite suppression in mice, 20% sucrose solution consumption; format: in vivo; settings: intraperitoneal injection, 50 micrograms
Experimental: Mice were deprived of their normal feed for two days and given free access to a 20% sucrose solution on the first day of feed deprivation. After the 2-day feed deprivation period, mice were injected intraperitoneally with 0.5 ml of a solution containing the test substance. Thirty minutes after injection, individual mice were placed in one of eight 15 cm^2 test box with a stainless steel grid floor and a glass drinking tube which projected into the box. The drinking tube was connected to a reservoir containing a 20% sucrose solution, and the interior of the drinking tube contained an electrode enabling the detection of drinking contacts with the solution by measuring the flow of a weak (unnoticeable) electric current through mice by means of an electronic apparatus connected to the drinking tube electrode and the stainless steel grid floor. Consumption of the sucrose solution was measured over a 10 minute period by electronically recording the total amount of contact with the sucrose solution during the test session. The degree of appetite suppression produced by a given test substance was determined by statistical comparison of the duration of sucrose consumption by control (vehicle treated) mice with that of mice treated with a test substance. The degree of appetite suppression in a treated group of mice was expressed as percent of the control groups response. […]

Mice [2] = test: Appetite suppression in mice, infant formula milk (Complan) consumption; format: in vivo
Experimental: Mice were deprived of their normal feed for two days and given free access to a 20% sucrose solution on the first day of feed deprivation. After the 2-day feed deprivation period, mice were injected intraperitoneally with 0.5 ml of a solution containing the test substance. Thirty minutes after injection, individual mice were placed in one of eight 15 cm^2 test box with a stainless steel grid floor and a glass drinking tube which projected into the box. The drinking tube was connected to a reservoir containing a 20% sucrose solution, and the interior of the drinking tube contained an electrode enabling the detection of drinking contacts with the solution by measuring the flow of a weak (unnoticeable) electric current through mice by means of an electronic apparatus connected to the drinking tube electrode and the stainless steel grid floor. Consumption of the sucrose solution was measured over a 10 minute period by electronically recording the total amount of contact with the sucrose solution during the test session. The degree of appetite suppression produced by a given test substance was determined by statistical comparison of the duration of sucrose consumption by control (vehicle treated) mice with that of mice treated with a test substance. The degree of appetite suppression in a treated group of mice was expressed as percent of the control groups response.
The method is as in Example 5, but instead of 20% sucrose, a solution of infant formula milk (Complan®) is used. The test substance is dissolved in a vehicle consisting of phosphate buffered saline with 1% albumin. Test substances dissolved in vehicle are injected either intravenously (IV) in a volume of 100 microliters, or intra-cerebroventricularly (ICV) in a volume of 10 microliters.
Mice were tested for appetite suppression as described in Example 8 after treatment with a test substance consisting of synthetic human GLP-2.

fasted rats = settings: cited from earlier work

## HADGSFSDEMNTVLDNLATRDFINWLLHTKITD [synthetic porcine GLP-2, porcine GLP-2]
Mice [1]
  suppression of sucrose consumption: 38%

## CC[C@H](C)[C@H](NC(=O)[C@H](Cc1ccccc1)NC(=O)[C@H](CC(=O)O)NC(=O)[C@H](CCCNC(=N)N)NC(=O)[C@H](C)NC(=O)[C@H](C)NC(=O)[C@H](CC(C)C)NC(=O)[C@H](CC(N)=O)NC(=O)[C@H](CC(=O)O)NC(=O)[C@H](CC(C)C)NC(=O)[C@@H](NC(=O)[C@@H](NC(=O)[C@H](CC(N)=O)NC(=O)[C@H](CCSC)NC(=O)[C@H](CCC(=O)O)NC(=O)[C@H](CC(=O)O)NC(=O)[C@H](CO)NC(=O)[C@H](Cc1ccccc1)NC(=O)[C@H](CO)NC(=O)CNC(=O)[C@H](CC(=O)O)NC(=O)[C@H](C)NC(=O)[C@@H](N)Cc1c[nH]cn1)[C@@H](C)O)[C@@H](C)CC)C(=O)N[C@@H](CC(N)=O)C(=O)N[C@@H](Cc1c[nH]c2ccccc12)C(=O)N[C@@H](CC(C)C)C(=O)N[C@H](C(=O)N[C@@H](CCC(N)=O)C(=O)N[C@H](C(=O)N[C@@H](CCCCN)C(=O)N[C@H](C(=O)N[C@H](C(=O)N[C@@H](CC(=O)O)C(=O)O)[C@@H](C)O)[C@@H](C)CC)[C@@H](C)O)[C@@H](C)CC [synthetic human GLP-2, human GLP-2]
Mice [2]; ICV injection, 3 micrograms
  suppression of milk consumption: 32%
Mice [2]; ICV injection, 10 micrograms
  suppression of milk consumption: 35%
Mice [2]; IV injection, 3 micrograms
  suppression of milk consumption: 24%

## Glucagon
Fasted rats; fasted rats, intraperitoneal administration of pharmacological doses
  effect on food intake: no effect on food intake

## GLP-1
Fasted rats; fasted rats, intracerebroventricular (ICV) administration
  effect on feeding: inhibited feeding
Fasted rats; peripheral administration
  effect on feeding behaviour: no effect on feeding behaviour
